Results taken from patent publication US11541056B2, “3-hydroxy-N-(3-(7H-pyrrolo[2,3-d]pyrimidin-4-yl)phenyl)pyrrolidine-1-carboxamide derivatives” (NOVARTIS AG, priority 2018, dated 2023).

How the values were obtained:
BTK-GFP = target: T1, BTK-GFP (Homo sapiens, UniProt Q06187+Q96SW2); experiment: BTK-GFP protein abundance flow cytometry assay in HEK293A cells; format: cell-based; conditions: 24 h; for BTK deg Amax %: % protein remaining at concentration of maximum degradation; for DC50: concentration at which 50% maximal degradation was observed
T1 construct: the BTK open reading frame (ORF) was first shuttled from a pcDNA-DEST40-BTK vector (Invitrogen library ID INV_20090504v1); expressed in transfected cells; host or cells: HEK293A cells (Invitrogen R70507), lentiviral transduction with pLenti6-BTK-GFP-Ires-RFP, blasticidin-selected
Outline: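 HEK293A cells stably expressing BTK-GFP-iresRFP treated 24 h at 37° C with 10-point 1:3 dilutions from 10 μM (0.1% DMSO), in duplicate. Median GFP of 5,000 single cells by flow cytometry, normalized to GFP-negative iresRFP cells (0%) and DMSO (100%); DC50 from concentration-response curves.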

OCI-LY3 cells = experiment: Resazurin cell viability assay in DLBCL cells (OCI-LY3); format: cell-based; conditions: Homo sapiens, OCI-Ly3, 72 h, OCI-LY3 cells (BTK independent), 50% growth inhibition, read-out: OCI-LY3 Prol GI50
Outline: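 BTK-independent OCI-LY3 cells were treated 72 h at 37° C/5% CO2 with an 8-point 1:4 series from 10 μM, in triplicate, versus DMSO. Viability was read by resazurin (13 μg/ml final, 2 h) fluorescence at 530/600 nm. GI50 was curve-fitted, typically from ≥2 independent experiments.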

T1 sequence (Q06187 whole entry): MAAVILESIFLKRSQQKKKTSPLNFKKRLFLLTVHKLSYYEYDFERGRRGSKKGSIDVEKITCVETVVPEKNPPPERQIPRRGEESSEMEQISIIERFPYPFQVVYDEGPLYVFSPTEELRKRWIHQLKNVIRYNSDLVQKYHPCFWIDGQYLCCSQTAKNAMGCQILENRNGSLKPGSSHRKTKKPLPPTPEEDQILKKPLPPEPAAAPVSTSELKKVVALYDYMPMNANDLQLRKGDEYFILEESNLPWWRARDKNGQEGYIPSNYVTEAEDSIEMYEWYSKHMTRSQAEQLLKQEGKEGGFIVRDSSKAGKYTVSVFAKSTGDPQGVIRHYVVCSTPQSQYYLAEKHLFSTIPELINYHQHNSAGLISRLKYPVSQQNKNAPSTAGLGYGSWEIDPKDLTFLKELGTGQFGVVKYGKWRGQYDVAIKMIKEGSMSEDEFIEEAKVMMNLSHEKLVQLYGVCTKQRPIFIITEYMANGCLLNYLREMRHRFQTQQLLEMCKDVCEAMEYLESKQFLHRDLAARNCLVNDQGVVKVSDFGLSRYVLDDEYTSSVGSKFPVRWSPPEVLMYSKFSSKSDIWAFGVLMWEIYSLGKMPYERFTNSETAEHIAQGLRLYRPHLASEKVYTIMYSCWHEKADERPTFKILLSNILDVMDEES
T1 sequence (Q96SW2 whole entry): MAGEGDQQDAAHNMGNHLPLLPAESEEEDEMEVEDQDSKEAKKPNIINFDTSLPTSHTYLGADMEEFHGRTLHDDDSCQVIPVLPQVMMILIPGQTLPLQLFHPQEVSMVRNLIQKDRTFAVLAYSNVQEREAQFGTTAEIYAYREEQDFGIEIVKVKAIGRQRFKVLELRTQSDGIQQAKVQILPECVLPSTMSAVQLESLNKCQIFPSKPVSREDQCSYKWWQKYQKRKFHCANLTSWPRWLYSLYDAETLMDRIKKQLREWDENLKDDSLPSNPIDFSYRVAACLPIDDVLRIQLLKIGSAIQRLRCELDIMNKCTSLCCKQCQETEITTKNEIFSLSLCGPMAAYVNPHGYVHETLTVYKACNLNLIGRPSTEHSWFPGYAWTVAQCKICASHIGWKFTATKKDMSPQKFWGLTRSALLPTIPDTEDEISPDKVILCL
T1 sequence (Q16531 whole entry partner): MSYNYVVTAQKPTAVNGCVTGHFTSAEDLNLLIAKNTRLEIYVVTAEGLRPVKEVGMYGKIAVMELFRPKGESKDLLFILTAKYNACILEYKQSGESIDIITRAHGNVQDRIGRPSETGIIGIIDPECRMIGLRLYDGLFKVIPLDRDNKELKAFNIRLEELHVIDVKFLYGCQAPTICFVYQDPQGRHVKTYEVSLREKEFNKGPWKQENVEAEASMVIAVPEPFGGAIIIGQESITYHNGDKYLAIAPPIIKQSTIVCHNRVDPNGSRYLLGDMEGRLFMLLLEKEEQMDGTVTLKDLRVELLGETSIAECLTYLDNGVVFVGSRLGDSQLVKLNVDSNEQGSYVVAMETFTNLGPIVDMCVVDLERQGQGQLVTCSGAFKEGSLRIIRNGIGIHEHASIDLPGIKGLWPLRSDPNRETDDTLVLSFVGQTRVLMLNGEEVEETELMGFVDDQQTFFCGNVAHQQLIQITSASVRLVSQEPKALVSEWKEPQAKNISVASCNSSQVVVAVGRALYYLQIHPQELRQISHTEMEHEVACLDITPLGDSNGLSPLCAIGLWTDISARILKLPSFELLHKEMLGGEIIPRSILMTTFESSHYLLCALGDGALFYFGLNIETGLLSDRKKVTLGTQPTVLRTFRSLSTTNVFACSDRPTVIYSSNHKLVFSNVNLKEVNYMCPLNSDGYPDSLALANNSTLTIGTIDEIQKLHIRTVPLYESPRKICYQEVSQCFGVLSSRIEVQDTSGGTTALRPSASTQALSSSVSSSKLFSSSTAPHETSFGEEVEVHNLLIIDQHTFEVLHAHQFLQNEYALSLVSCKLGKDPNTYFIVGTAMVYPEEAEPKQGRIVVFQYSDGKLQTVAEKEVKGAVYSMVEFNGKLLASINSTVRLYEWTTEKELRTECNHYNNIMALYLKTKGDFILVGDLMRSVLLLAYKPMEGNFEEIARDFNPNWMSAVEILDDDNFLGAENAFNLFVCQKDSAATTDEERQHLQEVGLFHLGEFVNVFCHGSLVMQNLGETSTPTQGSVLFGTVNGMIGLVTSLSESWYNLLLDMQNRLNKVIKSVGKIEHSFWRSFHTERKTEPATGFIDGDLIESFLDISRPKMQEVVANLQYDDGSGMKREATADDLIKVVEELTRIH

BTK deg Amax % (BTK-GFP) [%] | DC50 (BTK-GFP) [nM] | GI50 (OCI-LY3 cells) [nM] | SMILES
4 | 1.8 | 7250 | COc1ccc(C(=O)N2CCC3(CCN(CCc4ccc(-c5cc6c(-c7cc(F)cc(NC(=O)N8C[C@H](CC(C)C)[C@@H](O)C8)c7C)ncnc6[nH]5)cc4)CC3)CC2)cc1N1CCC(=O)NC1=O [Compound 15, (3R,4S)—N-(3-(6-(4-(2-(9-(3-(2,4-Dioxotetrahydropyrimidin-1(2H)-yl)-4-methoxybenzoyl)-3,9-diazaspiro[5.5]undecan-3-yl)ethyl)phenyl)-7H-pyrrolo[2,3-d]pyrimidin-4-yl)-5-fluoro-2-methylphenyl)-3-hydroxy-4-isobutylpyrrolidine-1-carboxamide]
13 | 85.5 | > 10000 | COc1ccc(C(=O)N2CCC3(CCN(CCc4ccc(-c5cc6c(-c7cc(F)cc(NC(=O)N8C[C@@H](CC(C)C)[C@H](O)C8)c7C)ncnc6[nH]5)cc4)CC3)CC2)cc1N1CCC(=O)NC1=O [Compound 19, (3S,4R)—N-(3-(6-(4-(2-(9-(3-(2,4-dioxotetrahydropyrimidin-1(2H)-yl)-4-methoxybenzoyl)-3,9-diazaspiro[5.5]undecan-3-yl)ethyl)phenyl)-7H-pyrrolo[2,3-d]pyrimidin-4-yl)-5-fluoro-2-methylphenyl)-3-hydroxy-4-isobutylpyrrolidine-1-carboxamide]
1.4 | 1.4 | 6680 | COc1ccc(C(=O)N2CCC(CCN3CCC(OCc4ccc(-c5cc6c(-c7cc(F)cc(NC(=O)N8C[C@H](CC(C)C)[C@@H](O)C8)c7C)ncnc6[nH]5)cc4)CC3)CC2)cc1N1CCC(=O)NC1=O [Compound 22, (3R,4S)—N-(3-(6-(4-(((1-(2-(1-(3-(2,4-Dioxotetrahydropyrimidin-1 (2H)-yl)-4-methoxybenzoyl)piperidin-4-yl)ethyl)piperidin-4-yl)oxy)methyl)phenyl)-7H-pyrrolo[2,3-d]pyrimidin-4-yl)-5-fluoro-2-methylphenyl)-3-hydroxy-4-isobutylpyrrolidine-1-carboxamide]
